Test results published in paper PMC5590679 (Journal of medicinal chemistry, 2017).
In brackets after ≈: the same amount, converted by molar mass. Where two headings read alike, the source gives them in different places.

What was measured:
[1] = tested on: Mtb H37Rv; test: microbe, parasite or virus in culture; type: cell-based, Mycobacterium tuberculosis; conditions: for MIC50 WT+biotin: Mtb H37Rv with 1 μM supplemental biotin; for MIC: Mycobacterium tuberculosis, H37RV
[2] = tested on: Mtb H37Rv; conditions: cited from earlier work
[3] = tested on: Mtb BioA underexpression strain (BioA-UE); test: microbe, parasite or virus in culture; type: cell-based, Mycobacterium tuberculosis
[4] = MIC that results in 50% inhibition

CC(=O)c1ccc(N2CCN(C(=O)c3ccc4c(c3)OCO4)CC2)cc1 [Compound 6, 1-(4-(4-(Benzo[d][1,3]dioxole-5-carbonyl)piperazin-1-yl)phenyl)-ethanone]
MIC50 WT+biotin [1, 4]: >50 µM
MIC ([1]; read-out: MIC that results in 90% inhibition, WT+biotin): > 50 µM
MIC ([1]; read-out: MIC that results in 90% inhibition, WT-biotin): 23.4 µM (≈ 8.25 µg/mL)
activity against whole-cell Mtb in biotin-supplemented medium [2]: no observed activity
MIC ([3]; Mycobacterium tuberculosis, read-out: MIC that results in 90% inhibition, BioA-UE): 1.7 µM (≈ 0.599 µg/mL)

CC(=O)c1ccc(N2CCN(C(=O)c3ccc(Cl)c(Cl)c3)CC2)cc1 [Compound 9, 1-(4-(4-(3,4-Dichlorobenzoyl)piperazin-1-yl)phenyl)ethanone]
fold loss in potency against WT Mtb ([1]; biotin-free medium, relative to 6): 2 fold

CC(=O)c1cccc(N2CCN(C(=O)c3cccc(Cl)c3)CC2)c1 [Compound 30, 1-(3-(4-(3-Chlorobenzoyl)piperazin-1-yl)phenyl)ethanone]
fold loss in activity compared to para-acetyl 12 [1]: 10–50 fold

O=C1CCc2cc(N3CCN(C(=O)c4ccc5c(c4)OCO5)CC3)ccc21 [Compound 36, 5-(4-(Benzo[d][1,3]dioxole-5-carbonyl)piperazin-1-yl)-2,3-dihydro-1H-inden-1-one]
MIC ([1]; read-out: minimum inhibitory concentration (MIC) against WT Mtb): 1.7 µM (≈ 0.619 µg/mL)

CC(=O)c1ccc(-c2cn(Cc3cccc(Cl)c3)nn2)cc1 [Compound 37, 1-(4-(1-(3-Chlorobenzyl)-1H-1,2,3-triazol-4-yl)phenyl)ethanone]
antitubercular activity (in words) [1]: inactive

CC(=O)c1ccc(-c2cn(Cc3cccc(Cl)c3)nn2)s1 [Compound 38, 1-(5-(1-(3-Chlorobenzyl)-1H-1,2,3-triazol-4-yl)thiophen-2-yl)-ethanone]
antitubercular activity (in words) [1]: inactive

CC(=O)c1ccc(N2CCC(C(=O)c3ccc4c(c3)OCO4)CC2)cc1 [Compound 40, 1-(4-(4-(Benzo[d][1,3]dioxole-5-carbonyl)piperidin-1-yl)phenyl)-ethanone]
antitubercular activity (in words) [1]: completely inactive

(3-Chlorophenyl)(4-(5-methoxypyridin-2-yl)piperazin-1-yl)-methanone [Compound 22]
MIC50 WT+biotin [1, 4]: >50 µM
MIC50 WT-biotin ([1]; MIC that results in 50% inhibition, Mtb H37Rv without supplemental biotin): 22.0 µM
MIC50 BioA-UE ([3]; MIC that results in 50% inhibition, […]): 24.4 µM
